Earlier results on 2 compounds are cited in US6878388B1, “Vanadium compounds for treating proliferative cell disorders” (Parker Hughes Institute, priority 2000, dated 2005).

One data set concerns pharyngonasal cancer. Particulars: single assay, Sakurai et al. 1995; cited from earlier work.
The test system of the next data set is tumor cell growth. Particulars: Kopf-Maier et al. 1983; cited from earlier work.

For `O.O.O=S(=O)([O-])[O-].[O]=[V+2].c1cnc2c(c1)ccc1cccnc12` [[VO(Phen)(H2O)2](SO4), (diaqua)(1,10-phenanthroline)oxovanadium (IV) sulfate], the “activity against pharyngonasal cancer” value in the data set on pharyngonasal cancer is given as “active”.

With Vanadocene dichloride [VDC], the “effect on tumor cell growth” value with tumor cell growth is listed as “arrest tumor cell growth”.
